Source: patent US6033823A, “Mutated penicillin G acylase genes” (priority 1994, dated 2000)
Numbering of substitutions follows the chain as printed.

Assays:
[1] = target: T1, Alcaligenes faecalis Penicillin G acylase mutant B:L56A (Alcaligenes faecalis, UniProt O34142, L321A); experiment: NIPAB kinetics and phenylacetic acid product inhibition, mutant B:L56A; format: biochemical; conditions: from progress curves of NIPAB deacylation, 25° C., 0.1 M NaH2PO4.H2O buffer pH 7.5, read-out: Ki Phenylacetic acid (inhibition constant, dissociation constant)
T1 construct: alpha 202 aa, beta 551 aa; recombinant, E. coli host
T1 sequence (O34142 27-228): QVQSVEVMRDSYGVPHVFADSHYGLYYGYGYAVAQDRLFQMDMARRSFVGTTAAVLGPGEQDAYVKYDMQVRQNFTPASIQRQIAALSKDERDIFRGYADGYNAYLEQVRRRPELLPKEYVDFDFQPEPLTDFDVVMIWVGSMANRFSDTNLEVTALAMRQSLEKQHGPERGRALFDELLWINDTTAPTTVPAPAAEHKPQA
T1 sequence (O34142 266-816 L321A): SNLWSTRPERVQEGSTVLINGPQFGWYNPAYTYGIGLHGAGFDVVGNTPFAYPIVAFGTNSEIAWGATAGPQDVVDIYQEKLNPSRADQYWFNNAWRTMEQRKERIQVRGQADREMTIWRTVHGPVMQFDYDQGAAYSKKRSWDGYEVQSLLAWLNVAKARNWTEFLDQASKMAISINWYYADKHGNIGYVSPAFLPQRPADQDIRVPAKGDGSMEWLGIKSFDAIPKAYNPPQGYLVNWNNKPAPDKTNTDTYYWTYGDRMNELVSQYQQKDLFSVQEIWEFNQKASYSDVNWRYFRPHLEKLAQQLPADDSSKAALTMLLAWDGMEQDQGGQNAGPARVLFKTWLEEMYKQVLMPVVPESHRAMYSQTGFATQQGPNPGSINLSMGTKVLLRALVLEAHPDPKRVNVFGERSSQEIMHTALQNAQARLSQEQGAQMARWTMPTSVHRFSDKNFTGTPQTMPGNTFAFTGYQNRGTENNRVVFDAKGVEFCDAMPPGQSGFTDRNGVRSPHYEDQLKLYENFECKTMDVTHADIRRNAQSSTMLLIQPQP
Description: In a continuous assay Penicillin G acylase was assayed spectro-fotometrically with the chromogenic substrate NIPAB [6-nitro-3-phenylacetamido-benzoic acid]. The liberation of 3-amino-6-nitrobenzoic acid was monitored by measuring the extinction at 405 nm in a Kontron 610 kinetic spectrofotometer. Measuring maximal rate, the assays were performed at 25° C. using 20 mM NaH2 PO4.H2 O at pH 7.5 with 20 mM NIPAB and 100 μl enzym solution (at a proper dilution). Initial rate measurements were performed with varying concentration of NIPAB.
Initial rate measurements were performed with excess substrate over the enzyme. Catalytic parameters were derived from least-squares fitting of the measured initial rates plotted for various substrate concentrations according to the Michaelis-Menten equation.
The complete conversion of NIPAB was followed as a funtion of time at 20, 50 and 100 μM NIPAB by following the increase in absorbtion at 405 nm. Products of this conversion are phenylacetic acid and 3-amino-6-nitrobenzoic acid. The conversion was performed at 25° C. in 0.1 M NaH2 PO4.H2 O buffer pH 7.5. The progress curves of the deacylation of NIPAB could be fitted very well when product inhibition by phenylacetic acid was taken into account. […]

[2] = target: T2, Alcaligenes faecalis Penicillin G acylase, wild type (α subunit SEQ ID NO:27, β subunit SEQ ID NO:32) (Alcaligenes faecalis, UniProt O34142); experiment: Deacylation kinetics and phenylacetic acid product inhibition, wild type PenG acylase; format: biochemical; conditions: wt AF; from progress curves of NIPAB deacylation, 25° C., 0.1 M NaH2PO4.H2O buffer pH 7.5; read-out: Ki Phenylacetic acid (inhibition constant, dissociation constant)
T2 construct: alpha 202 aa, beta 551 aa; likely recombinant, E. coli host
T2 sequence (O34142 27-228): T1 sequence (O34142 27-228)
T2 sequence (O34142 266-816): T1 sequence (O34142 266-816 L321A) with A56L
Description: In order to determine enzymatic activity the acylases were incubated with substrate at room temperature in buffered solution. In case β-lactamase impurity was expected to be present in the enzyme preparations, 1.0 mM -lactamase inhibitor 6-bromo-penicillanic acid was added to the assay. The reactions were stopped by adding an excess PMSF. For some mutants which were less sensitive to PMSF inhibition, the reactions were stopped by adding 0.5 M HCl or 0.5 M acetic acid until the pH was between 3 and 4. When reactions were subsequently analysed by HPLC, the reactions were stopped by dilution with the correponding elution solvent (see table 1). […]
The composition of the reaction mixtures was determined by high-performanceliquid chromatography (HPLC)(table 1). Concentrations were determined by using standards of known concentration.
In a continuous assay Penicillin G acylase was assayed spectro-fotometrically with the chromogenic substrate NIPAB [6-nitro-3-phenylacetamido-benzoic acid]. The liberation of 3-amino-6-nitrobenzoic acid was monitored by measuring the extinction at 405 nm in a Kontron 610 kinetic spectrofotometer. […]
Initial rate measurements were performed with excess substrate over the enzyme. Catalytic parameters were derived from least-squares fitting of the measured initial rates plotted for various substrate concentrations according to the Michaelis-Menten equation. […]

O=C(O)Cc1ccccc1 [phenylacetic acid]
Ki [1]: 59 µM | Ki [2]: 11 µM
